Target: T1, CXCR3 (Homo sapiens, UniProt P49682)
T1 construct: host or cells: CHO-K1 (cAMP Hunter CHOK1 CXCR3 Gi cell line)
T1 sequence (P49682 1-368): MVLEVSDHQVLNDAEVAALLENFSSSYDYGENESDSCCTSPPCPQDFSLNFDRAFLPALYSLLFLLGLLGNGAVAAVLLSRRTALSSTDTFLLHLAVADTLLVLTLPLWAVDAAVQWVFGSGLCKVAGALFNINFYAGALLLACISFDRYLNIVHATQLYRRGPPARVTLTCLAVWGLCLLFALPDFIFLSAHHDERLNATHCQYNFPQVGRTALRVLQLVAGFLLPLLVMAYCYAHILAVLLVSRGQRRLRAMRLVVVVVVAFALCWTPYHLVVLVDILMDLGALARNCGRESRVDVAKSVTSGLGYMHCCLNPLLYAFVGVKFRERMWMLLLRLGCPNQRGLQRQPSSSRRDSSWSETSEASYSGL
Experiment: CXCR3 cAMP agonist assay (cAMP Hunter CHOK1 CXCR3 Gi cell line, forskolin-stimulated, HitHunter cAMP detection)
Format: cell-based
Details: cAMP Hunter CHOK1 CXCR3 Gi cells, 20 μM forskolin, 30 minutes; read-out: Activity (CXCR3 cAMP agonist assay compound EC50)
Method: The cAMP Hunter™ CHOK1 CXCR3 Gi cell line was purchased from DiscoveRx. Cells were seeded into a 96-well white assay plate at 50,000 cells/well/94 μl assay buffer (Hank's Buffered Saline Solution, 10 mM HEPES, 0.1% fatty acid-free BSA, pH 7.4) and immediately assayed in suspension. Forskolin was added to 20 μM (5 μl of 400 μM stock) simultaneously with a 12-point dose response curve of compound at 0-10 μM (1 μl of 100× stock in 100% DMSO), and cells were incubated for 30 minutes. A cAMP standard curve is run as an assay control. A CXCL11 dose response was included to determine maximum efficacy. Direct detection of cAMP was carried out using the DiscoveRx HitHunter cAMP kit according to manufacturer's instructions, and luminescence was read using a SpectraMax M5 plate reader.

Compound | EC50
NCC[C@H](NC(=O)[C@@H]1Cc2ccccc2CN1C(=O)CCC(=O)c1ccccc1)C(=O)Nc1ccc2c(c1)C(=O)CC2 [Compound 2-68] | 50 to 250 nM
NCC[C@H](NC(=O)[C@@H]1Cc2ccccc2CN1C(=O)CCC(=O)c1ccccc1)C(=O)Nc1ccc2c(c1)CCC2=O [Compound 2-69] | > 500 nM
COc1cc(F)c(F)cc1NC(=O)[C@H](CCN)NC(=O)[C@@H]1Cc2ccccc2CN1C(=O)CCC(=O)c1ccccc1 [Compound 2-70] | 250 to 500 nM
COc1cc(C)c(F)cc1NC(=O)[C@H](CCN)NC(=O)[C@@H]1Cc2ccccc2CN1C(=O)CCC(=O)c1ccccc1 [Compound 2-71] | 50 to 250 nM
CC1(C)CCc2cc(NC(=O)[C@H](CCN)NC(=O)[C@@H]3Cc4ccccc4CN3C(=O)CCC(=O)c3ccccc3)ccc21 [Compound 2-72] | < 50 nM
NCC[C@H](NC(=O)[C@@H]1Cc2ccccc2CN1C(=O)CCC(=O)c1ccccc1)C(=O)Nc1cc2c(cc1Cl)CCC2 [Compound 2-73] | < 50 nM
NCC[C@H](NC(=O)[C@@H]1Cc2ccccc2CN1C(=O)CCC(=O)c1ccccc1)C(=O)Nc1cc2c(cc1O)CCC2 [Compound 2-74] | 50 to 250 nM
CC1(C)Cc2ccc(NC(=O)[C@H](CCN)NC(=O)[C@@H]3Cc4ccccc4CN3C(=O)CCC(=O)c3ccccc3)cc2C1 [Compound 2-75] | 50 to 250 nM
COc1cc(C(F)(F)F)c(C)cc1NC(=O)[C@H](CCN)NC(=O)[C@@H]1Cc2ccccc2CN1C(=O)CCC(=O)c1ccccc1 [Compound 2-76] | 50 to 250 nM
NCC[C@H](NC(=O)[C@@H]1Cc2ccccc2CN1C(=O)CCC(=O)c1ccccc1)C(=O)Nc1ccc2c(c1Cl)CCC2 [Compound 2-77] | 50 to 250 nM
NCC[C@H](NC(=O)[C@@H]1Cc2ccccc2CN1C(=O)CCC(=O)c1ccccc1)C(=O)Nc1cc2c(cc1F)CCC2 [Compound 2-78] | < 50 nM
COc1cc(C)c(C)cc1NC(=O)[C@H](CCN)NC(=O)[C@@H]1Cc2ccccc2CN1C(=O)CCC(=O)c1ccccc1 [Compound 2-79] | < 50 nM
NCC[C@H](NC(=O)[C@@H]1Cc2ccccc2CN1C(=O)CCC(=O)c1ccccc1)C(=O)Nc1ccc2scnc2c1 [Compound 2-80] | 250 to 500 nM
NCC[C@H](NC(=O)[C@@H]1Cc2ccccc2CN1C(=O)CCC(=O)c1ccccc1)C(=O)NC1CCc2ccccc2C1 (some centres unmarked) [Compound 2-81] | 50 to 250 nM
CN1Cc2ccc(NC(=O)[C@H](CCN)NC(=O)[C@@H]3Cc4ccccc4CN3C(=O)CCC(=O)c3ccccc3)cc2C1 [Compound 2-82] | < 50 nM
NC(=O)NCCC[C@H](NC(=O)[C@@H]1Cc2ccccc2CN1C(=O)CCC(=O)c1ccccc1)C(=O)Nc1ccc(Cl)c(Cl)c1 [Compound 3-1, (S)—N—((S)-1-((3,4-dichlorophenyl)amino)-1-oxo-5-ureidopentan-2-yl)-2-(4-oxo-4-phenylbutanoyl)-1,2,3,4-tetrahydroisoquinoline-3-carboxamide] | 50 to 250 nM
Cc1cc(NC(=O)[C@H](CCNC(=N)N)NC(=O)[C@@H]2Cc3ccccc3CN2C(=O)CCC(=O)c2ccccc2)ccc1Cl [Compound 3-2] | < 50 nM
Cc1cc(NC(=O)[C@H](Cc2ccncc2)NC(=O)[C@@H]2Cc3ccccc3CN2C(=O)CCC(=O)c2ccccc2)ccc1Cl [Compound 3-4] | 50 to 250 nM
Cc1cc(NC(=O)[C@H](Cc2ccccn2)NC(=O)[C@@H]2Cc3ccccc3CN2C(=O)CCC(=O)c2ccccc2)ccc1Cl [Compound 3-5] | 50 to 250 nM
NC(=O)NCCCC[C@H](NC(=O)[C@@H]1Cc2ccccc2CN1C(=O)CCC(=O)c1ccccc1)C(=O)Nc1ccc(Cl)c(Cl)c1 [Compound 3-6] | 250 to 500 nM
Cc1cc(NC(=O)[C@H](CCN(C(C)C)C(C)C)NC(=O)[C@@H]2Cc3ccccc3CN2C(=O)CCC(=O)c2ccccc2)ccc1Cl [Compound 3-7] | < 50 nM
Cc1cc(NC(=O)[C@H](CCN2CCCC2)NC(=O)[C@@H]2Cc3ccccc3CN2C(=O)CCC(=O)c2ccccc2)ccc1Cl [Compound 3-8] | < 50 nM
Cc1cc(NC(=O)[C@H](CCN2CCCCC2)NC(=O)[C@@H]2Cc3ccccc3CN2C(=O)CCC(=O)c2ccccc2)ccc1Cl [Compound 3-9] | < 50 nM
Cc1cc(NC(=O)[C@H](Cc2ccnc(N)c2)NC(=O)[C@@H]2Cc3ccccc3CN2C(=O)CCC(=O)c2ccccc2)ccc1Cl [Compound 3-10] | 50 to 250 nM
COc1nccc(C[C@H](NC(=O)[C@@H]2Cc3ccccc3CN2C(=O)CCC(=O)c2ccccc2)C(=O)Nc2ccc(Cl)c(C)c2)n1 [Compound 3-11] | 250 to 500 nM

Compound | EC50
Cc1cc(NC(=O)[C@H](CC(N)=O)NC(=O)[C@@H]2Cc3ccccc3CN2C(=O)CCC(=O)c2ccccc2)ccc1Cl [Compound 3-12] | 50 to 250 nM
Cc1cc(NC(=O)[C@H](CCC(N)=O)NC(=O)[C@@H]2Cc3ccccc3CN2C(=O)CCC(=O)c2ccccc2)ccc1Cl [Compound 3-13] | 50 to 250 nM
Cc1cc(NC(=O)[C@H](Cc2cnc(N)nc2)NC(=O)[C@@H]2Cc3ccccc3CN2C(=O)CCC(=O)c2ccccc2)ccc1Cl [Compound 3-14] | 250 to 500 nM
Cc1cc(NC(=O)[C@@H](Cc2cc3ccccc3[nH]2)NC(=O)[C@@H]2Cc3ccccc3CN2C(=O)CCC(=O)c2ccccc2)ccc1Cl [Compound 4-5] | > 500 nM
Cc1cc(NC(=O)[C@H](Cc2c[nH]cn2)NC(=O)[C@@H]2Cc3ccccc3CN2C(=O)CCC(=O)c2ccccc2)ccc1Cl [Compound 4-8] | < 50 nM
Cc1cc(NC(=O)[C@@](C)(CCCCN)NC(=O)[C@@H]2Cc3ccccc3CN2C(=O)CCC(=O)c2ccccc2)ccc1Cl [Compound 4-9] | 50 to 250 nM
Cc1cc(NC(=O)[C@](C)(CCCCN)NC(=O)[C@@H]2Cc3ccccc3CN2C(=O)CCC(=O)c2ccccc2)ccc1Cl [Compound 4-10] | 50 to 250 nM
NCC[C@H](NC(=O)[C@@H]1Cc2ccccc2CN1C(=O)CCC(=O)c1ccccc1)C(=O)Nc1cc(Cl)c(Cl)cn1 [Compound 4-15] | 250 to 500 nM
Cc1cc(NC(=O)[C@H](CCN)NC(=O)[C@@H]2Cc3ccccc3CN2C(=O)CCC(=O)c2ccccc2)ncc1Cl [Compound 4-16] | < 50 nM
Cc1cc(NC(=O)[C@H](CCN)NC(=O)[C@H]2Cc3ccccc3CN2C(=O)CCC(=O)c2ccccc2)ncc1Cl [Compound 4-17] | > 500 nM
Cc1cc(NC(=O)[C@H](CCN)NC(=O)[C@@H]2Cc3ccccc3CN2C(=O)CCC(=O)c2ccccc2)cc(Cl)c1Cl [Compound 4-18] | 50 to 250 nM
Cc1c(F)cc(NC(=O)[C@H](CCN)NC(=O)[C@@H]2Cc3ccccc3CN2C(=O)CCC(=O)c2ccccc2)cc1Cl [Compound 4-19] | < 50 nM
NCC[C@H](NC(=O)[C@@H]1Cc2ccc(O)cc2CN1C(=O)CCC(=O)c1ccccc1)C(=O)Nc1ccc(Cl)c(Cl)c1F [Compound 4-20] | < 50 nM
CN(C)C(=N)NCCC[C@H](NC(=O)[C@@H]1Cc2ccccc2CN1C(=O)CCC(=O)c1ccccc1)C(=O)Nc1ccc(Cl)c(Cl)c1 [Compound 5-1, (S)—N—((S)-1-((3,4-dichlorophenyl)amino)-5-(3,3-dimethylguanidino)-1-oxopentan-2-yl)-2-(4-oxo-4-phenylbutanoyl)-1,2,3,4-tetrahydroisoquinoline-3-carboxamide] | < 50 nM
Cc1cc(NC(=O)[C@H](Cc2cncn2C)NC(=O)[C@@H]2Cc3ccccc3CN2C(=O)CCC(=O)c2ccccc2)ccc1Cl [Compound 5-2] | 50 to 250 nM
Cc1cc(NC(=O)[C@H](Cc2cncs2)NC(=O)[C@@H]2Cc3ccccc3CN2C(=O)CCC(=O)c2ccccc2)ccc1Cl [Compound 5-3] | 50 to 250 nM
Cc1cc(NC(=O)[C@H](CCN2CCOCC2)NC(=O)[C@@H]2Cc3ccccc3CN2C(=O)CCC(=O)c2ccccc2)ccc1Cl [Compound 5-4] | 50 to 250 nM
Cc1cc(NC(=O)[C@H](CCCC[N+](C)(C)C)NC(=O)[C@@H]2Cc3ccccc3CN2C(=O)CCC(=O)c2ccccc2)ccc1Cl [Compound 6-3] | 50 to 250 nM
Cc1cc(NC(=O)[C@H](CC[N+](C)(C)C)NC(=O)[C@@H]2Cc3ccccc3CN2C(=O)CCC(=O)c2ccccc2)ccc1Cl [Compound 6-7] | 50 to 250 nM
Cc1cc(NC(=O)[C@H](CCCCN)NC(=O)[C@@H]2Cc3ccccc3CN2C(=O)CCC(=O)c2cccc(Cl)c2)ccc1Cl [Compound 7-2] | 50 to 250 nM
Cc1cc(C(=O)CCC(=O)N2Cc3ccccc3C[C@H]2C(=O)N[C@@H](CCCCN)C(=O)Nc2ccc(Cl)c(C)c2)ccc1F [Compound 7-3] | 50 to 250 nM
Cc1cc(NC(=O)[C@H](CCCCN)NC(=O)[C@@H]2Cc3ccccc3CN2C(=O)CCC(=O)c2ccc(F)c(F)c2)ccc1Cl [Compound 7-4] | 250 to 500 nM
Cc1ccc(C(=O)CCC(=O)N2Cc3ccccc3C[C@H]2C(=O)N[C@@H](CCCCN)C(=O)Nc2ccc(Cl)c(C)c2)cc1F [Compound 7-5] | > 500 nM
Cc1cc(NC(=O)[C@H](CCCCN)NC(=O)[C@@H]2Cc3ccccc3CN2C(=O)CCC(=O)c2cccc(N(C)C)c2)ccc1Cl [Compound 7-6] | 50 to 250 nM
CCOc1cccc(C(=O)CCC(=O)N2Cc3ccccc3C[C@H]2C(=O)N[C@@H](CCCCN)C(=O)Nc2ccc(Cl)c(C)c2)c1 [Compound 7-7] | 50 to 250 nM

From patent US11040954B1, “CXCR3 receptor agonists” (RECEPTOS LLC, priority 2016, dated 2021)
